Results published in the NIST ThermoML archive (doi:10.1021/acs.jced.5b00934).
± gives the expanded uncertainty stated by the source.

Settings: Liquid, Vibrating tube method

CC(C)(C)O [2-methylpropan-2-ol]
Settings | mass density [kg/m3]
303.15 K, 99 kPa | 775.3 ± 0.8
303.15 K, 298 kPa | 775.5 ± 0.8
303.15 K, 499 kPa | 775.7 ± 0.8
303.15 K, 898 kPa | 776.1 ± 0.8
303.15 K, 1002 kPa | 776.2 ± 0.8
303.15 K, 2007 kPa | 777.1 ± 0.8
303.15 K, 3007 kPa | 778.1 ± 0.8
303.15 K, 4999 kPa | 780 ± 0.8
303.15 K, 7003 kPa | 781.9 ± 0.8
303.15 K, 8992 kPa | 783.7 ± 0.8
303.15 K, 10005 kPa | 784.6 ± 0.8
303.15 K, 11999 kPa | 786.3 ± 0.8
308.15 K, 97 kPa | 770.2 ± 0.8
308.15 K, 298 kPa | 770.4 ± 0.8
308.15 K, 500 kPa | 770.6 ± 0.8
308.15 K, 897 kPa | 771 ± 0.8
308.15 K, 1002 kPa | 771.1 ± 0.8
308.15 K, 2009 kPa | 772.1 ± 0.8
308.15 K, 3000 kPa | 773.1 ± 0.8
308.15 K, 5006 kPa | 775.1 ± 0.8
308.15 K, 9006 kPa | 778.8 ± 0.8
308.15 K, 10007 kPa | 779.7 ± 0.8
308.15 K, 12005 kPa | 781.5 ± 0.8
308.15 K, 15021 kPa | 784.1 ± 0.8
308.15 K, 19998 kPa | 788.2 ± 0.8
308.15 K, 22003 kPa | 789.8 ± 0.8
308.15 K, 24990 kPa | 792.2 ± 0.9
308.15 K, 28006 kPa | 794.5 ± 0.9
308.15 K, 30005 kPa | 796 ± 0.9
308.16 K, 7005 kPa | 777 ± 0.8
308.16 K, 18006 kPa | 786.6 ± 0.8
313.15 K, 99 kPa | 764.8 ± 0.8
313.15 K, 298 kPa | 765 ± 0.8
313.15 K, 502 kPa | 765.2 ± 0.8
313.15 K, 904 kPa | 765.7 ± 0.8
313.15 K, 1009 kPa | 765.8 ± 0.8
313.15 K, 2016 kPa | 766.8 ± 0.8
313.15 K, 3006 kPa | 767.8 ± 0.8
313.15 K, 5010 kPa | 769.9 ± 0.8
313.15 K, 7006 kPa | 771.8 ± 0.8
313.15 K, 9005 kPa | 773.7 ± 0.8
313.15 K, 10007 kPa | 774.7 ± 0.8
313.15 K, 12005 kPa | 776.5 ± 0.8
313.15 K, 15005 kPa | 779.2 ± 0.8
313.15 K, 18003 kPa | 781.8 ± 0.8
313.15 K, 20015 kPa | 783.5 ± 0.8
313.15 K, 22002 kPa | 785.1 ± 0.9
313.15 K, 25007 kPa | 787.5 ± 0.9
313.15 K, 28002 kPa | 789.9 ± 0.9
313.15 K, 30000 kPa | 791.4 ± 0.9
313.15 K, 33001 kPa | 793.7 ± 0.9
313.15 K, 33012 kPa | 793.6 ± 0.9
313.15 K, 34006 kPa | 794.4 ± 0.9
313.15 K, 35008 kPa | 795.1 ± 0.9
313.15 K, 38012 kPa | 797.2 ± 0.9
313.15 K, 40002 kPa | 798.6 ± 0.9
313.15 K, 42007 kPa | 800 ± 0.9
313.15 K, 44997 kPa | 802 ± 0.9
313.16 K, 32001 kPa | 792.9 ± 0.9
318.15 K, 100 kPa | 759.4 ± 0.8
318.15 K, 298 kPa | 759.6 ± 0.8
318.15 K, 498 kPa | 759.8 ± 0.8
318.15 K, 901 kPa | 760.3 ± 0.8
318.15 K, 1006 kPa | 760.4 ± 0.8
318.15 K, 2001 kPa | 761.5 ± 0.8
318.15 K, 3003 kPa | 762.6 ± 0.8
318.15 K, 5002 kPa | 764.7 ± 0.8
318.15 K, 7005 kPa | 766.7 ± 0.8
318.15 K, 8999 kPa | 768.7 ± 0.8
318.15 K, 10002 kPa | 769.7 ± 0.8
318.15 K, 11999 kPa | 771.6 ± 0.8
318.15 K, 15010 kPa | 774.4 ± 0.8
318.15 K, 17998 kPa | 777 ± 0.8
318.15 K, 20006 kPa | 778.8 ± 0.8
318.15 K, 21999 kPa | 780.5 ± 0.9
318.15 K, 24994 kPa | 782.9 ± 0.9
318.15 K, 28005 kPa | 785.4 ± 0.9
318.15 K, 30001 kPa | 787 ± 0.9
318.15 K, 32001 kPa | 788.5 ± 0.9
318.15 K, 32993 kPa | 789.3 ± 0.9
318.15 K, 33002 kPa | 789.3 ± 0.9
318.15 K, 34010 kPa | 790 ± 0.9
318.15 K, 35001 kPa | 790.8 ± 0.9
318.15 K, 38000 kPa | 793 ± 0.9
318.15 K, 40010 kPa | 794.4 ± 0.9
318.15 K, 42021 kPa | 795.9 ± 0.9
318.15 K, 45005 kPa | 797.9 ± 0.9
318.15 K, 47997 kPa | 799.9 ± 0.9
318.15 K, 49998 kPa | 801.3 ± 0.9
318.15 K, 52004 kPa | 802.6 ± 0.9
318.15 K, 55002 kPa | 804.6 ± 0.9
318.15 K, 57994 kPa | 806.5 ± 0.9
318.15 K, 60002 kPa | 807.7 ± 1
323.15 K, 99 kPa | 753.9 ± 0.8
323.15 K, 298 kPa | 754.1 ± 0.8
323.15 K, 502 kPa | 754.4 ± 0.8
323.15 K, 901 kPa | 754.9 ± 0.8
323.15 K, 1004 kPa | 755 ± 0.8
323.15 K, 2003 kPa | 756.1 ± 0.8
323.15 K, 3002 kPa | 757.2 ± 0.8
323.15 K, 5004 kPa | 759.4 ± 0.8
323.15 K, 7002 kPa | 761.5 ± 0.8
323.15 K, 9002 kPa | 763.5 ± 0.8
323.15 K, 10002 kPa | 764.5 ± 0.8
323.15 K, 12000 kPa | 766.5 ± 0.8
323.15 K, 14999 kPa | 769.3 ± 0.8
323.15 K, 17998 kPa | 772.1 ± 0.8
323.15 K, 20000 kPa | 773.9 ± 0.8
323.15 K, 22000 kPa | 775.7 ± 0.9
323.15 K, 25000 kPa | 778.2 ± 0.9
323.15 K, 27995 kPa | 780.7 ± 0.9
323.15 K, 30002 kPa | 782.4 ± 0.9
323.15 K, 32000 kPa | 784 ± 0.9
323.15 K, 33000 kPa | 784.7 ± 0.9
323.15 K, 33001 kPa | 784.7 ± 0.9
323.15 K, 34000 kPa | 785.5 ± 0.9
323.15 K, 35004 kPa | 786.2 ± 0.9
323.15 K, 38000 kPa | 788.5 ± 0.9
323.15 K, 39998 kPa | 790 ± 0.9
323.15 K, 41998 kPa | 791.5 ± 0.9
323.15 K, 45000 kPa | 793.6 ± 0.9
323.15 K, 47996 kPa | 795.7 ± 0.9
323.15 K, 50000 kPa | 797.1 ± 0.9
323.15 K, 51998 kPa | 798.4 ± 0.9
323.15 K, 55006 kPa | 800.5 ± 0.9
323.15 K, 57995 kPa | 802.4 ± 1
323.15 K, 60000 kPa | 803.7 ± 1
328.15 K, 101 kPa | 748.4 ± 0.8
328.15 K, 298 kPa | 748.7 ± 0.8
328.15 K, 499 kPa | 748.9 ± 0.8
328.15 K, 898 kPa | 749.4 ± 0.8
328.15 K, 1005 kPa | 749.5 ± 0.8
328.15 K, 2001 kPa | 750.7 ± 0.8
328.15 K, 3001 kPa | 751.9 ± 0.8
328.15 K, 5001 kPa | 754.1 ± 0.8
328.15 K, 7001 kPa | 756.3 ± 0.8
328.15 K, 9004 kPa | 758.5 ± 0.8
328.15 K, 9999 kPa | 759.5 ± 0.8
328.15 K, 11999 kPa | 761.6 ± 0.8
328.15 K, 15004 kPa | 764.5 ± 0.8
328.15 K, 18006 kPa | 767.4 ± 0.8
328.15 K, 19995 kPa | 769.2 ± 0.9
328.15 K, 22000 kPa | 771 ± 0.9
328.15 K, 24996 kPa | 773.6 ± 0.9
328.15 K, 27998 kPa | 776.2 ± 0.9
328.15 K, 30005 kPa | 777.9 ± 0.9
328.15 K, 32005 kPa | 779.5 ± 0.9
328.15 K, 33023 kPa | 780.3 ± 0.9
328.15 K, 33038 kPa | 780.4 ± 0.9
328.15 K, 34013 kPa | 781.1 ± 0.9
328.15 K, 35004 kPa | 781.9 ± 0.9
328.15 K, 38002 kPa | 784.3 ± 0.9
328.15 K, 40024 kPa | 785.8 ± 0.9
328.15 K, 41999 kPa | 787.2 ± 0.9
328.15 K, 45002 kPa | 789.4 ± 0.9
328.15 K, 47997 kPa | 791.6 ± 0.9
328.15 K, 49992 kPa | 793 ± 0.9
328.15 K, 55000 kPa | 796.4 ± 0.9
328.15 K, 57995 kPa | 798.3 ± 1
328.15 K, 60003 kPa | 799.6 ± 1
328.16 K, 51996 kPa | 794.3 ± 0.9
333.15 K, 103 kPa | 742.8 ± 0.8
333.15 K, 307 kPa | 743.1 ± 0.8
333.15 K, 502 kPa | 743.3 ± 0.8
333.15 K, 915 kPa | 743.8 ± 0.8
333.15 K, 1007 kPa | 744 ± 0.8
333.15 K, 2013 kPa | 745.2 ± 0.8
333.15 K, 3006 kPa | 746.4 ± 0.8
333.15 K, 5002 kPa | 748.8 ± 0.8
333.15 K, 7005 kPa | 751.1 ± 0.8
333.15 K, 9001 kPa | 753.3 ± 0.8
333.15 K, 9999 kPa | 754.3 ± 0.8
333.15 K, 12003 kPa | 756.5 ± 0.8
333.15 K, 15000 kPa | 759.6 ± 0.8
333.15 K, 17995 kPa | 762.5 ± 0.8
333.15 K, 19997 kPa | 764.4 ± 0.9
333.15 K, 21996 kPa | 766.2 ± 0.9
333.15 K, 24994 kPa | 768.9 ± 0.9
333.15 K, 27993 kPa | 771.6 ± 0.9
333.15 K, 30003 kPa | 773.3 ± 0.9
333.15 K, 32004 kPa | 775 ± 0.9
333.15 K, 32850 kPa | 775.7 ± 0.9
333.15 K, 32871 kPa | 775.7 ± 0.9
333.15 K, 34000 kPa | 776.6 ± 0.9
333.15 K, 34990 kPa | 777.4 ± 0.9
333.15 K, 38004 kPa | 779.8 ± 0.9
333.15 K, 39997 kPa | 781.4 ± 0.9
333.15 K, 41998 kPa | 782.9 ± 0.9
333.15 K, 44909 kPa | 785.1 ± 0.9
333.15 K, 48119 kPa | 787.4 ± 0.9
